Experimental data as given in PMC11460631, “Inhibition of transient receptor potential vanilloid 3 channels by antimalarial hydroxychloroquine alleviates TRPV3-dependent dermatitis” (The Journal of Biological Chemistry, 2024).

Experiments:
[1] = biological target: T1, TRPV3 Y594F mutation (Homo sapiens, UniProt Q8NET8, Y594F); experiment: Whole-cell recording of TRPV3 Y594F mutant; format: cell-based; details: 1 mM 2-APB, ± 80 mV
T1 construct: YFP or GFP; expressed in transfected cells; host or cells: HEK293T
T1 sequence (Q8NET8 1-790 Y594F): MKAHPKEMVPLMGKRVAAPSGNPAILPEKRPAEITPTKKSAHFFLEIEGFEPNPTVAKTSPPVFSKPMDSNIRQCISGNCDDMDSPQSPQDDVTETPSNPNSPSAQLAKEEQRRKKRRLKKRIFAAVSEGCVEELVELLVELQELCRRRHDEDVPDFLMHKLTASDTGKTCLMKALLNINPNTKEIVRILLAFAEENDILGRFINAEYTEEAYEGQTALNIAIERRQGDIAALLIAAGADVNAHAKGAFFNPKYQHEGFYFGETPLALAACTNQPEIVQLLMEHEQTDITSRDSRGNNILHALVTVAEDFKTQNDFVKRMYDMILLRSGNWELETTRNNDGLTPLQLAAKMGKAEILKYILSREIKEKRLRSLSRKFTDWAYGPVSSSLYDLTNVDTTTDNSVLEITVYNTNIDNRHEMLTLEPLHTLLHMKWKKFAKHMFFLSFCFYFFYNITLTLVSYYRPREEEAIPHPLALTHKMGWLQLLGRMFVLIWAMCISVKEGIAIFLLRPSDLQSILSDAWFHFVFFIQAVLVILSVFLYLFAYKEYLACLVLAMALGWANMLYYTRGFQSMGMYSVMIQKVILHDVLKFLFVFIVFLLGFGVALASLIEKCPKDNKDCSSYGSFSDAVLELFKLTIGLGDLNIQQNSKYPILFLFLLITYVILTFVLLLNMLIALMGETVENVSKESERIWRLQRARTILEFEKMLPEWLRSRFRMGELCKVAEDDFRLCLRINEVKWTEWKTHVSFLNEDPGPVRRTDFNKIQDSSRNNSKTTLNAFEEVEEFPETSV
From the text: As we mentioned above, HCQ may act as a pore blocker of TRPV3. To probe the binding configuration of HCQ to TRPV3, we carried out molecular docking using Rosetta suite (https://rosettacommons.org) ([21]) and validated the docking models with point mutations in TRPV3 (Fig. 4A). […] Furthermore, when we introduced L670A to L591A mutant, we also observed a left shift on the concentration–response curve on this double mutant as compared to L591A mutant (Fig. 4H).
Figure 4 Residues of the pore domain are critical for HCQ inhibition on TRPV3.A, left panel, docking model of HCQ to the pore domain of TRPV3 structure (6uw4). Right panels, top view and side view of the HCQ-binding pocket. B-J, representative whole-cell recording of TRPV3 and mutants in response to 1 mM 2-APB, the mixture of 1 mM 2-APB and concentration gradients of HCQ with the holding potential of ± 80 mV. K, concentration–response curves of HCQ in WT TRPV3 and mutants (n = 3–5 cells). L, quantification of the inhibitory ratio of HCQ (100 μM) on WT, L591A, and N671Q. […]
All data from whole-cell recordings were analyzed in Igor Pro (WaveMetrics). IC50 values were determined by fitting the Hill equation to concentration-response relationships. […]

[2] = test system: TNF-α, IL-6, IgE, IL-4 in mouse dorsal skin tissues; experiment: Carvacrol-induced AD-like mouse model: inflammatory factors by ELISA; format: in vivo
Method: We therefore generated a carvacrol-induced AD mouse model to test the effect of HCQ.
To generate an AD-like mice model, 2% carvacrol (dissolved in 30% ethanol solution) was topically smeared onto the mice dorsum 1 day after hair removal with a depilatory cream (Vetin Depilatory Cream). Mice received a topical administration of an equal volume (200 μl) of 2% carvacrol or in the presence of 2 mg/ml HCQ. […] After the application of carvacrol for 5 days, the external appearance of mice was photographed and then sampled. The external appearance was graded based on three aspects: thickness, erythema/bleeding, and dryness/desquamation, with severity assessed on a score of 0 to 4. The degree of thickness was measured by the thickness of the skin in H&E staining. Skin tissues were either fixed in 4% paraformaldehyde or placed in PBS buffer containing 1% protease inhibitor, facilitating subsequent steps of paraffin embedding or ELISA experiments.
Animal skin tissues were placed in PBS buffer containing 1% protease inhibitors, then homogenized, and centrifuged for supernatants. Cytokine concentrations of supernatants (IL-4, IL-6, TNF-α, and IgE) were measured using ELISA kits (Tsingke) according to the manufacturer's instructions. The absorption at 450 nm was measured by a microplate reader (Thermo Multiskan MK3).

[3] = mouse tissues, HCQ 2 mg/ml topical with 2% carvacrol, 5 days

CCN(CCO)CCCC(C)Nc1ccnc2cc(Cl)ccc12 (centres unmarked) [HCQ, hydroxychloroquine]
IC50 [1]: 34.8 ± 1.59 µM
suppression of serum IgE levels ([2]; HCQ 2 mg/ml topical with 2% carvacrol, 5 days): 60.22 ± 11.26%
IL-4 levels compared to the model group ([2]; mouse tissues, HCQ 2 mg/ml or DXM 1 mg/ml topical with 2% carvacrol): no significant difference
inhibition of release of carvacrol-induced IL-6 [2, 3]: 77.09% ± 5.38%
inhibition of release of carvacrol-induced TNF-α [2, 3]: 88.10% ± 4.12%
